Measured values as given in publication PMC11278016, “Discovery of Prenyltransferase-Guided Hydroxyphenylacetic Acid Derivatives from Marine Fungus Penicillium sp. W21C371” (Marine Drugs, 2024).

Tests used:
[1] = molecular target: Escherichia coli β-glucuronidase (EcGUS) (Escherichia coli, UniProt P05804); assay: EcGUS inhibition assay; format: biochemical; settings: for IC50: EcGUS inhibition, mean ± SD, three independent experiments; for Ki′ (inhibition constant of the enzyme–substrate complex): EcGUS–substrate complex, secondary plot of Y-intercept versus [I]; for type of inhibition: Lineweaver–Burk plots; for Ki: free EcGUS, secondary plot of slope versus [I], Lineweaver–Burk, read-out: Ki (inhibition constant of the enzyme); for inhibition at 100 µM: preliminary screening at a concentration of 100 μM, read-out: relative inhibitory rate
Experimental: All isolates 1–17 were evaluated for their in vitro inhibitory activity against EcGUS, a potential target for the treatment of drug-induced gastrointestinal disorders, employing D-saccharic acid 1,4-lactone (DSL) as the positive control. […] In view of the potent inhibitory activity of 2 and 3 against EcGUS, their kinetic mechanisms of inhibition were determined using Lineweaver–Burk plots (Figure 5 and Table S1). The inhibition constants of the enzyme Ki and the enzyme–substrate complex Ki^′ were obtained by secondary plots of “slope versus [I]” and “Y-intercept versus [I]”, respectively. […] As a mixed-type inhibitor of EcGUS, 3 was supposed to bind either the free EcGUS or the EcGUS–substrate complex. […] To the best of our knowledge, 2 and 3 represent the first citridone and ergosterol derivatives with potent EcGUS-inhibitory activity. However, 2 and 3 were obtained in limited amount in the present study, preventing the in vivo evaluation of their EcGUS inhibition activity. The optimization of the fermentation and separation processes with the aim of increasing the yields of 2 and 3 is underway, which may help to accumulate greater amounts of the two compounds for further in-depth pharmacological studies.
Optical rotations were obtained with a Rudolph Research Autopol III automatic polarimeter. IR spectra were recorded on a Thermo Nicolet 6700 FT-IR microscope instrument (FT-IR microscope transmission) in KBr pellets. UV spectra were measured on a TU-1900 spectrometer (Persee, Beijing, China). Meanwhile, 1D and 2D-NMR spectra were obtained at 600 MHz for ^1H and 150 MHz for ^13C on a Bruker Avance 600 spectrometer, with solvent peaks used as references. HRESIMS data were measured on an Agilent-6210-LC/TOF mass spectrometer (Agilent Technologies, Inc., Santa Clara, CA, USA). EcGUS-inhibitory activity was measured spectrophotometrically using a SpectraMax Plus 384 microplate reader (Molecular Devices, San Jose, CA, USA). Column chromatography (CC) was performed on silica gel (SiO2; 200–300 mesh; Qingdao Marine Chemical Co., Ltd.), ODS C-18 gel (50 mm; YMC Co., Ltd., Kyoto, Japan), and MCI CHP20P gel (75–150 μm, Tokyo, Japan). Semi-preparative HPLC was performed on an Cosmosil 5C18-MS-II column (5 μm, 250 × 10 mm) with a Shimadzu LC-20AT system eluting with methanol/water or acetonitrile/water at a flow rate of 3 mL/min. Chiral separation was performed on a Chiralpak AD-H column (5 μm, 4.6 × 250 mm). Thin layer chromatography (TLC) was performed on precoated silica gel GF254 plates (Qingdao Marine Chemical Co., Ltd., Qingdao, China) and visualized by UV light and/or spraying with 10% H2SO4 in 95% EtOH, followed by heating. All solvents used were of analytical grade and obtained from commercially available sources. All reagents used for biological evaluation were obtained from Sigma-Aldrich (St. Louis, MO, USA).
The EcGUS inhibition assay was performed according to the method previously reported, employing DSL as the positive control. The results are presented as means ± SD for three independent experiments.

[2] = system: methicillin-resistant Staphylococcus aureus (MRSA); parameters: method as in PMID 24643052; settings: MRSA virulence factor; cited from earlier work
[3] = system: Candida albicans; parameters: method as in PMID 19160522; settings: against Candida albicans; cited from earlier work

Escherichia coli β-glucuronidase (EcGUS), sequence (P05804 whole entry): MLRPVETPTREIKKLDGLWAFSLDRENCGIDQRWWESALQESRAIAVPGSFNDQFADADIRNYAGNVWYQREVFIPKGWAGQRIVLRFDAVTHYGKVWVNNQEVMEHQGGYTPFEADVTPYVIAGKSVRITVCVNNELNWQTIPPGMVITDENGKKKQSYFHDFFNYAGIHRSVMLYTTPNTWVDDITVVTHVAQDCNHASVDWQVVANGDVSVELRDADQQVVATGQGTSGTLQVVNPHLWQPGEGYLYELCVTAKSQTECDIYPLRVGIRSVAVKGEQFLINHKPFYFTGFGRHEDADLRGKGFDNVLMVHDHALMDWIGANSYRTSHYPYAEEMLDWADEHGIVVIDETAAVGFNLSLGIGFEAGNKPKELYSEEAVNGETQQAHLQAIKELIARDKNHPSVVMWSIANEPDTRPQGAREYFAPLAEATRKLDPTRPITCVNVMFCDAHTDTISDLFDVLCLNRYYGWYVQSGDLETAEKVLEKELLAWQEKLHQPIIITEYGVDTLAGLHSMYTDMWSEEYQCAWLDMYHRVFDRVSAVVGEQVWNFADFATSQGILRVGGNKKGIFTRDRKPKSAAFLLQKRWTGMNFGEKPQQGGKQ

Row | Compound | IC50 [1] [µM] | Ki′ (inhibition constant of the enzyme–substrate complex) [1] [µM] | type of inhibition [1] | Ki [1] [µM] | Vmax ([1]; inhibitor concentration 0.015 mM) [mg/μmol⋅min] | Vmax ([1]; inhibitor concentration 0.030 mM) [mg/μmol⋅min] | Vmax ([1]; inhibitor concentration 0.050 mM) [mg/μmol⋅min] | inhibition at 100 µM [1] [%] | inhibition of staphyloxanthin biosynthesis [2] | Vmax ([1]; inhibitor concentration 0.02 mM) [mg/μmol⋅min] | Vmax ([1]; inhibitor concentration 0.04 mM) [mg/μmol⋅min] | Vmax ([1]; inhibitor concentration 0.08 mM) [mg/μmol⋅min] | potentiation of miconazole activity [3]
1 | CC(=C[C@@H](C)[C@H]1CC[C@@H]2[C@]1(C)CC=C1[C@]23C=C[C@]2(C[C@@H](O)CC[C@]12C)OO3)[C@H](C)C(C)C [Compound 3, 5α,8α-epidioxy-23,24(R)-dimethylcholesta-6,9(11),22-trien-3β-ol] | 21.6 ± 0.76 | 48.80 | mixed-type | 89 | 29.05 ± 1.14 | 22.03 ± 1.06 | 18.22 ± 0.64 | > 60 | – | – | – | – | –
2 | CC1=CC2(C)Oc3c(-c4ccccc4)c[nH]c(=O)c3C2C1C (stereo not shown) [Compound 2, citridone A] | 44.6 ± 0.84 | 69.20 | non-competitive inhibitor | 76.3 | – | – | – | > 60 | inhibit the biosynthesis of staphyloxanthin | 38.33 ± 2.97 | 32.36 ± 3.11 | 23.58 ± 2.49 | potentiator of miconazole
3 | O=C(O)[C@@H](O)[C@H]1OC(=O)[C@H](O)[C@H]1O [DSL, D-saccharic acid 1,4-lactone, reference compound] | 47.9 ± 0.89 | – | – | – | – | – | – | – | – | – | – | – | –
